From patent EP3763226A1, “COMPOSITION FOR REDUCING HAIR LOSS AND IMPROVING HAIR GROWTH IN CASES OF ANDROGENETIC ALOPECIA” (Merz Pharma GmbH & Co. KGaA, priority 2019, dated 2021)

Key:
5-α-Reduktase Typ II = molecular target: T1, 5-α-Reduktase Typ II (Homo sapiens, UniProt P31213); assay: Cell-free in vitro 5α-reductase type II inhibition assay (HEK II cell homogenate, androstenedione conversion, LC-HRMS); format: biochemical
T1 sequence (P31213 1-254): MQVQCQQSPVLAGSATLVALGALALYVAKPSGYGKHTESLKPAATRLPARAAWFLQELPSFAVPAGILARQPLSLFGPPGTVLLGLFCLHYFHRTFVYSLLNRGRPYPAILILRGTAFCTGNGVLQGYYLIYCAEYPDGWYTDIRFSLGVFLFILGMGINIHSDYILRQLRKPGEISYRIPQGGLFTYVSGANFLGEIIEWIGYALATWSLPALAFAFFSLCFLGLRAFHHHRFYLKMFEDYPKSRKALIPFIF
Procedure: (§1) Die HEK I Zellen exprimieren rekombinante 5 alpha Reduktase vom Typ I, während die HEK II Zellen rekombinante 5 alpha Reduktase vom Typ II exprimieren.
(§2) HEK I und HEK II Zellen wurden in DMEM (Dulbecco's modified eagle medium, ccpro GmbH) (pH 7.4) mit 10 % FCS (Fetal calf serum, PAN), Penicillin/Streptomycin (100 U/ml und 100 µg/ml) und 0.5 mg/ml Geneticin-418-sulfat in einer befeuchteten 5 % CO2 Atmosphäre bei 37°C kultiviert.
(§3) Herstellung der 5-α-Reduktase Typ I und II enthaltenen Zellfraktionen: Für den Zell-freien in vitro assays wurden HEK I oder HEK II geerntet, durch Zentrifugation (500 x g) vom Zellkulturmedium befreit und re-suspended in einem Homogenisierungs-Puffer bestehend aus 50 mM Tris-HCI (pH 7.4), 300 mM Saccharose, 0.1 mM EDTA, 10 mM DTT and 100 µM PMSF. Durch Einfrieren bei - 196 °C und Auftauen auf Eis, wurden die Zellen solubilisiert. Nach einer Inkubations-Zeitraum von 30 min bei 4°C mit 1 mg/ml DNAse in 50 mM MgCl2 und zwischenzeitlich kräftigen Schütteln, wurde das erhaltene Homogenisat bei 20,200 x g in einer gekühlten Zentrifuge für 50 min bei 4°C zentrifugiert. Das Pellet wurde im Homogenisierungs-Puffer re-suspendiert und wieder bei 20,200 x g für 30 Minuten bei at 4°C zentrifugiert. Diese Prozedur wurde zweimal wiederholt. […] Der Protein-Gehalt wurde gemäß der BCA-Methode mit dem kommerziell erhältlichen BCA-Protein Assay Kit von Pierce quantifiziert. […]

5-α-Reduktase Typ I = molecular target: T2, 5-α-Reduktase Typ I (Homo sapiens, UniProt P18405); assay: Cell-free in vitro 5α-reductase type I inhibition assay (HEK I cell homogenate, androstenedione conversion, LC-HRMS); format: biochemical; settings: concentration giving 50% inhibition; Abbildung 1; read-out: IC50-Wert für die 5 alpha Reduktase vom Typ I
T2 construct: expressed in transfected cells; host or cells: HEK293 (HEK I), stably transfected; gift of Prof; R. W. Hartmann, Saarland University; particulate fraction of the cell homogenate used
T2 sequence (P18405 1-259): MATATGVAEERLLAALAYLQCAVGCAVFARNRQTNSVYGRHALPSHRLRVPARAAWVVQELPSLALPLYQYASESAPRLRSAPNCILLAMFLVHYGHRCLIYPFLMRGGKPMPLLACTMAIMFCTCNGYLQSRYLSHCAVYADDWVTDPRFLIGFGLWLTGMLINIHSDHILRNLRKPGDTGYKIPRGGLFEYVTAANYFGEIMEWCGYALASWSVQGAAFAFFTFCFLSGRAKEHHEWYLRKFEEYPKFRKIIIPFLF
Procedure: as §1, §2, §3

[1] = system: ex-vivo Kultur von Haarfollikeln; settings: ex vivo culture of hair follicles; cited from earlier work

| IC50 (5-α-Reduktase Typ II; concentration giving 50% inhibition, Abbildung 1, read-out: IC50-Wert für die 5 alpha Reduktase vom Typ II) [nM] | Wirkung auf die 5-alpha Reduktase vom Typ II stärker als auf Typ I (5-α-Reduktase Typ II; ratio of the concentrations for 50% inhibition, type I vs type II) | IC50 (5-α-Reduktase Typ I) [nM] | Compound | Haarwachstum [1] |
| --- | --- | --- | --- | --- |
| 1.89 | ca. 200 fach | 376 | CC(C)(C)NC(=O)[C@H]1CC[C@H]2[C@@H]3CC[C@H]4NC(=O)C=C[C@]4(C)[C@H]3CC[C@]12C [Finasterid] | – |
| – | – | – | O=C(O[C@@H]1Cc2c(O)cc(O)cc2O[C@@H]1c1cc(O)c(O)c(O)c1)c1cc(O)c(O)c(O)c1 [Epigallocatechin-3-gallate] | stimuliert |
